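All cell lines were grown in 96-well plates and treated with compound for 48 hours. TGI denotes the concentration required for complete inhibition of growth.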

One assay has as its system PC-3 prostate. In words: NCI anticancer screen, dose series, 48 h.
`O=C1NN=C2C=C(c3ccc(Cl)cc3)CC(c3cccc(Cl)c3)C12` (stereo unspecified): the TGI is greater than 100 µM.

In the next assay the test system is SK-MEL-28 melanoma. In words: NCI anticancer screen, dose series, 48 h.
In turn, `COC(=O)C1(OC(=O)Sc2ccccc2)CCN(C)CC1` gave a TGI greater than 100 µM.

In turn, `CC(CC(=O)O)C(C(=O)O)C(=O)O` (stereo unspecified) had a TGI greater than 100 µM.

`CC(=O)OC1O[C@@H](C(C)(C)O)CC[C@@H]1[C@H]1CC[C@@]2(C)C3=C(CC[C@]12C)[C@@]1(C)C[C@@H](OC(=O)CC(C)(O)CC(=O)O)[C@H](OC(C)=O)C(C)(C)C1CC3` (stereo partly specified) yielded a TGI of 30.8 µM.

The subject of the next assay is SF-268 CNS. In words: NCI anticancer screen, dose series, 48 h.
The molecule `COC(=O)C1(OC(=O)Sc2ccccc2)CCN(C)CC1` yielded a TGI of 62 µM.

As for `CC(CC(=O)O)C(C(=O)O)C(=O)O` (stereo unspecified), the TGI was greater than 100 µM.

`O=C1NN=C2C=C(c3ccc(Cl)cc3)CC(c3cccc(Cl)c3)C12` (stereo unspecified) displayed a TGI greater than 100 µM.

A further assay has as its system MOLT-4 leukemia. Description: NCI anticancer screen, dose series, 48 h.
On to `COC(=O)C1(OC(=O)Sc2ccccc2)CCN(C)CC1`, for which the TGI was greater than 39.8 µM.

Molecule `CC(CC(=O)O)C(C(=O)O)C(=O)O` (stereo unspecified) showed a TGI greater than 100 µM.

`CC(=O)OC1O[C@@H](C(C)(C)O)CC[C@@H]1[C@H]1CC[C@@]2(C)C3=C(CC[C@]12C)[C@@]1(C)C[C@@H](OC(=O)CC(C)(O)CC(=O)O)[C@H](OC(C)=O)C(C)(C)C1CC3` (stereo partly specified) returned a TGI of 43.9 µM.

`O=C1NN=C2C=C(c3ccc(Cl)cc3)CC(c3cccc(Cl)c3)C12` (stereo unspecified) showed a TGI of 52.9 µM.

The next assay relates to M14 melanoma. In words: NCI anticancer screen, dose series, 48 h.
`COC(=O)C1(OC(=O)Sc2ccccc2)CCN(C)CC1` came in with a TGI greater than 58.6 µM.

The molecule `CC(CC(=O)O)C(C(=O)O)C(=O)O` (stereo unspecified) yielded a TGI greater than 100 µM.

With `CC(=O)OC1O[C@@H](C(C)(C)O)CC[C@@H]1[C@H]1CC[C@@]2(C)C3=C(CC[C@]12C)[C@@]1(C)C[C@@H](OC(=O)CC(C)(O)CC(=O)O)[C@H](OC(C)=O)C(C)(C)C1CC3` (stereo partly specified), the TGI turned out to be 34.8 µM.

On to `O=C1NN=C2C=C(c3ccc(Cl)cc3)CC(c3cccc(Cl)c3)C12` (stereo unspecified), for which the TGI is greater than 100 µM.

A further assay has as its system OVCAR-5 ovarian. Description: NCI anticancer screen, dose series, 48 h.
In turn, `COC(=O)C1(OC(=O)Sc2ccccc2)CCN(C)CC1` displayed a TGI greater than 69.6 µM.

On to `CC(CC(=O)O)C(C(=O)O)C(=O)O` (stereo unspecified), for which the TGI is greater than 100 µM.

`CC(=O)OC1O[C@@H](C(C)(C)O)CC[C@@H]1[C@H]1CC[C@@]2(C)C3=C(CC[C@]12C)[C@@]1(C)C[C@@H](OC(=O)CC(C)(O)CC(=O)O)[C@H](OC(C)=O)C(C)(C)C1CC3` (stereo partly specified) registered a TGI of 32.2 µM.

As to `O=C1NN=C2C=C(c3ccc(Cl)cc3)CC(c3cccc(Cl)c3)C12` (stereo unspecified), the TGI is 75.7 µM.

In another assay the test system is NCI-H522 lung. In words: NCI anticancer screen, dose series, 48 h.
For the molecule `COC(=O)C1(OC(=O)Sc2ccccc2)CCN(C)CC1`, the TGI worked out at 35.1 µM.

As to `CC(CC(=O)O)C(C(=O)O)C(=O)O` (stereo unspecified), the TGI was greater than 100 µM.

`O=C1NN=C2C=C(c3ccc(Cl)cc3)CC(c3cccc(Cl)c3)C12` (stereo unspecified) displayed a TGI of 42.8 µM.

The next assay has as its system HOP-62 NSCLC. Description: NCI anticancer screen, dose series, 48 h.
Regarding `COC(=O)C1(OC(=O)Sc2ccccc2)CCN(C)CC1`, the TGI was greater than 66.6 µM.

`CC(CC(=O)O)C(C(=O)O)C(=O)O` (stereo unspecified) displayed a TGI greater than 100 µM.

The molecule `CC(=O)OC1O[C@@H](C(C)(C)O)CC[C@@H]1[C@H]1CC[C@@]2(C)C3=C(CC[C@]12C)[C@@]1(C)C[C@@H](OC(=O)CC(C)(O)CC(=O)O)[C@H](OC(C)=O)C(C)(C)C1CC3` (stereo partly specified) had a TGI of 35.4 µM.

`O=C1NN=C2C=C(c3ccc(Cl)cc3)CC(c3cccc(Cl)c3)C12` (stereo unspecified): the TGI was greater than 100 µM.

A further assay relates to IGROV1 ovarian. In words: NCI anticancer screen, dose series, 48 h.
The molecule `COC(=O)C1(OC(=O)Sc2ccccc2)CCN(C)CC1` yielded a TGI of 18.7 µM.

`CC(CC(=O)O)C(C(=O)O)C(=O)O` (stereo unspecified) registered a TGI greater than 100 µM.

In turn, `CC(=O)OC1O[C@@H](C(C)(C)O)CC[C@@H]1[C@H]1CC[C@@]2(C)C3=C(CC[C@]12C)[C@@]1(C)C[C@@H](OC(=O)CC(C)(O)CC(=O)O)[C@H](OC(C)=O)C(C)(C)C1CC3` (stereo partly specified) gave a TGI of 33.6 µM.

Molecule `O=C1NN=C2C=C(c3ccc(Cl)cc3)CC(c3cccc(Cl)c3)C12` (stereo unspecified) showed a TGI of 59.1 µM.

The subject of the next assay is UACC-62 melanoma. In words: NCI anticancer screen, dose series, 48 h.
On to `COC(=O)C1(OC(=O)Sc2ccccc2)CCN(C)CC1`, for which the TGI was greater than 64.7 µM.

With `CC(CC(=O)O)C(C(=O)O)C(=O)O` (stereo unspecified), the TGI is greater than 100 µM.

The molecule `CC(=O)OC1O[C@@H](C(C)(C)O)CC[C@@H]1[C@H]1CC[C@@]2(C)C3=C(CC[C@]12C)[C@@]1(C)C[C@@H](OC(=O)CC(C)(O)CC(=O)O)[C@H](OC(C)=O)C(C)(C)C1CC3` (stereo partly specified) registered a TGI of 72.4 µM.

The molecule `O=C1NN=C2C=C(c3ccc(Cl)cc3)CC(c3cccc(Cl)c3)C12` (stereo unspecified) displayed a TGI of 33.6 µM.

In another assay the test system is OVCAR-8 ovarian. Description: NCI anticancer screen, dose series, 48 h.
`COC(=O)C1(OC(=O)Sc2ccccc2)CCN(C)CC1` returned a TGI of 52.7 µM.

For the molecule `CC(CC(=O)O)C(C(=O)O)C(=O)O` (stereo unspecified), the TGI is greater than 100 µM.

`CC(=O)OC1O[C@@H](C(C)(C)O)CC[C@@H]1[C@H]1CC[C@@]2(C)C3=C(CC[C@]12C)[C@@]1(C)C[C@@H](OC(=O)CC(C)(O)CC(=O)O)[C@H](OC(C)=O)C(C)(C)C1CC3` (stereo partly specified): the TGI turned out to be 33.1 µM.

In turn, `O=C1NN=C2C=C(c3ccc(Cl)cc3)CC(c3cccc(Cl)c3)C12` (stereo unspecified) gave a TGI greater than 100 µM.

In the next assay the test system is HS 578T breast. In words: NCI anticancer screen, dose series, 48 h.
In turn, `COC(=O)C1(OC(=O)Sc2ccccc2)CCN(C)CC1` yielded a TGI of 70.9 µM.

In turn, `CC(CC(=O)O)C(C(=O)O)C(=O)O` (stereo unspecified) registered a TGI greater than 100 µM.

As for `CC(=O)OC1O[C@@H](C(C)(C)O)CC[C@@H]1[C@H]1CC[C@@]2(C)C3=C(CC[C@]12C)[C@@]1(C)C[C@@H](OC(=O)CC(C)(O)CC(=O)O)[C@H](OC(C)=O)C(C)(C)C1CC3` (stereo partly specified), the TGI came to 42.3 µM.

Consider `O=C1NN=C2C=C(c3ccc(Cl)cc3)CC(c3cccc(Cl)c3)C12` (stereo unspecified), for which the TGI was determined as 55 µM.

A further assay deals with SW-620 colon. In words: NCI anticancer screen, dose series, 48 h.
For `COC(=O)C1(OC(=O)Sc2ccccc2)CCN(C)CC1`, the TGI worked out at 54.9 µM.

For the molecule `CC(CC(=O)O)C(C(=O)O)C(=O)O` (stereo unspecified), the TGI is greater than 100 µM.

On to `CC(=O)OC1O[C@@H](C(C)(C)O)CC[C@@H]1[C@H]1CC[C@@]2(C)C3=C(CC[C@]12C)[C@@]1(C)C[C@@H](OC(=O)CC(C)(O)CC(=O)O)[C@H](OC(C)=O)C(C)(C)C1CC3` (stereo partly specified), for which the TGI was found to be 37.4 µM.

The molecule `O=C1NN=C2C=C(c3ccc(Cl)cc3)CC(c3cccc(Cl)c3)C12` (stereo unspecified) showed a TGI greater than 100 µM.

A further assay has as its system TK-10 renal. Description: NCI anticancer screen, dose series, 48 h.
On to `COC(=O)C1(OC(=O)Sc2ccccc2)CCN(C)CC1`, for which the TGI is greater than 75.6 µM.

For `CC(CC(=O)O)C(C(=O)O)C(=O)O` (stereo unspecified), the TGI is greater than 100 µM.

With `CC(=O)OC1O[C@@H](C(C)(C)O)CC[C@@H]1[C@H]1CC[C@@]2(C)C3=C(CC[C@]12C)[C@@]1(C)C[C@@H](OC(=O)CC(C)(O)CC(=O)O)[C@H](OC(C)=O)C(C)(C)C1CC3` (stereo partly specified), the TGI was determined as 33.2 µM.

Turning to `O=C1NN=C2C=C(c3ccc(Cl)cc3)CC(c3cccc(Cl)c3)C12` (stereo unspecified), the TGI stood at 48.1 µM.

The next assay has as its system T-47D breast. Description: NCI anticancer screen, dose series, 48 h.
On to `COC(=O)C1(OC(=O)Sc2ccccc2)CCN(C)CC1`, for which the TGI was greater than 100 µM.

As for `CC(CC(=O)O)C(C(=O)O)C(=O)O` (stereo unspecified), the TGI was greater than 100 µM.

`CC(=O)OC1O[C@@H](C(C)(C)O)CC[C@@H]1[C@H]1CC[C@@]2(C)C3=C(CC[C@]12C)[C@@]1(C)C[C@@H](OC(=O)CC(C)(O)CC(=O)O)[C@H](OC(C)=O)C(C)(C)C1CC3` (stereo partly specified) registered a TGI of 40.3 µM.

`O=C1NN=C2C=C(c3ccc(Cl)cc3)CC(c3cccc(Cl)c3)C12` (stereo unspecified) registered a TGI greater than 100 µM.

For another assay, the system named is SNB-19 CNS. In words: NCI anticancer screen, dose series, 48 h.
The molecule `COC(=O)C1(OC(=O)Sc2ccccc2)CCN(C)CC1` gave a TGI greater than 100 µM.

Turning to `CC(CC(=O)O)C(C(=O)O)C(=O)O` (stereo unspecified), the TGI was greater than 100 µM.
